According to ChEMBL document CHEMBL1132264, “Low-molecular-weight anti-HIV-1 peptides from the amino-terminal sequence of RANTES: possible lead compounds for coreceptor-directed anti-HIV-1 agents” (1999):
Where a SMILES comes first, the peptide text is derived from it.

How the values were obtained:
[1] = system: Human immunodeficiency virus 1; experiment: Anti-HIV-1 activity of phytohemagglutininin activated peripheral blood mononuclear cells infected with the macrophage-tropic HIV-1 virus (JRCSF) at 10 nM; type: functional
[2] = system: Human immunodeficiency virus 1; experiment: Anti-HIV-1 activity of phytohemagglutininin activated peripheral blood mononuclear cells infected with the macrophage-tropic HIV-1 virus (JRCSF) at 100 nM; type: functional

Row | SMILES | inhibition at 0.01 µM [1] | inhibition at 0.1 µM [2]
1 | CC(=O)N[C@@H](CC(=O)O)C(=O)N[C@H](C(=O)N[C@H](C(=O)N1CCC[C@H]1C(=O)N[C@@H](C)C(N)=O)[C@@H](C)O)[C@@H](C)O (Ac-DTTPA-NH2) | 43% | 46%
2 | CC(=O)N[C@@H](CO)C(=O)N1CCC[C@H]1C(=O)N[C@@H](Cc1ccc(O)cc1)C(=O)N[C@@H](CO)C(=O)N[C@@H](CO)C(=O)N[C@@H](CC(=O)O)C(=O)N[C@H](C(=O)N[C@H](C(=O)N1CCC[C@H]1C(=O)N[C@@H](C)C(N)=O)[C@@H](C)O)[C@@H](C)O (Ac-SPYSSDTTPA-NH2) | 51% | 69%
3 | C[C@H](NC(=O)[C@@H]1CCCN1C(=O)[C@@H](NC(=O)[C@@H](NC(=O)[C@@H](N)CC(=O)O)[C@@H](C)O)[C@@H](C)O)C(=O)O (H-DTTPA-OH) | 18% | 29%
4 | C[C@H](NC(=O)[C@@H]1CCCN1C(=O)[C@@H](NC(=O)[C@@H](NC(=O)[C@H](CC(=O)O)NC(=O)[C@@H](N)CO)[C@@H](C)O)[C@@H](C)O)C(=O)O (H-SDTTPA-OH) | 9% | 4%
5 | C[C@H](NC(=O)[C@@H]1CCCN1C(=O)[C@@H](NC(=O)[C@@H](NC(=O)[C@H](CC(=O)O)NC(=O)[C@H](CO)NC(=O)[C@@H](N)CO)[C@@H](C)O)[C@@H](C)O)C(=O)O (H-SSDTTPA-OH) | 22% | 22%
6 | C[C@H](NC(=O)[C@@H]1CCCN1C(=O)[C@@H](NC(=O)[C@@H](N)[C@@H](C)O)[C@@H](C)O)C(=O)O (H-TTPA-OH) | 0% | 0%
7 | C[C@H](NC(=O)[C@@H]1CCCN1C(=O)[C@@H](NC(=O)[C@@H](NC(=O)[C@H](CC(=O)O)NC(=O)[C@H](CO)NC(=O)[C@H](CO)NC(=O)[C@@H](N)Cc1ccc(O)cc1)[C@@H](C)O)[C@@H](C)O)C(=O)O (H-YSSDTTPA-OH) | 41% | 34%
8 | C[C@H](NC(=O)[C@@H]1CCCN1C(=O)[C@@H](NC(=O)[C@@H](NC(=O)[C@H](CC(=O)O)NC(=O)[C@H](CO)NC(=O)[C@H](CO)NC(=O)[C@H](Cc1ccc(O)cc1)NC(=O)[C@@H]1CCCN1)[C@@H](C)O)[C@@H](C)O)C(=O)O [PYSSDTTPA] (H-PYSSDTTPA-OH) | 24% | 39%
